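In this assay, cells in 96-well plates receive the compound at five concentrations for 48 hours. Endpoints are linearly interpolated between the surrounding concentrations. Here, GI50 denotes the concentration required for 50% inhibition of growth. Definition used: TGI = concentration required for complete inhibition of growth.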
Tests used:
Experiment in all cases: growth of human tumour cells (NCI), 48 h
786-0 renal = tested on: 786-0 renal
A498 renal = tested on: A498 renal
A549 NSCLC = tested on: A549 NSCLC
ACHN renal = tested on: ACHN renal
BT-549 breast = tested on: BT-549 breast
CAKI-1 renal = tested on: CAKI-1 renal
CCRF-CEM leukemia = tested on: CCRF-CEM leukemia
COLO 205 colon = tested on: COLO 205 colon
DU-145 prostate = tested on: DU-145 prostate
EKVX NSCLC = tested on: EKVX NSCLC
HCC-2998 colon = tested on: HCC-2998 colon
HCT-116 colon = tested on: HCT-116 colon
HCT-15 colon = tested on: HCT-15 colon
HL-60(TB) leukemia = tested on: HL-60(TB) leukemia
HOP-62 NSCLC = tested on: HOP-62 NSCLC
HOP-92 NSCLC = tested on: HOP-92 NSCLC
HS 578T breast = tested on: HS 578T breast
HT29 colon = tested on: HT29 colon
IGROV1 ovarian = tested on: IGROV1 ovarian
K-562 leukemia = tested on: K-562 leukemia
KM12 colon = tested on: KM12 colon
LOX IMVI melanoma = tested on: LOX IMVI melanoma
M14 melanoma = tested on: M14 melanoma
MALME-3M melanoma = tested on: MALME-3M melanoma
MCF7 breast = tested on: MCF7 breast
MDA-MB-231 breast = tested on: MDA-MB-231 breast
MDA-MB-435 = tested on: MDA-MB-435
MOLT-4 leukemia = tested on: MOLT-4 leukemia
NCI-H226 lung = tested on: NCI-H226 lung
NCI-H23 lung = tested on: NCI-H23 lung
NCI-H460 lung = tested on: NCI-H460 lung
NCI-H522 lung = tested on: NCI-H522 lung
NCI/ADR-RES ovarian = tested on: NCI/ADR-RES ovarian
OVCAR-3 ovarian = tested on: OVCAR-3 ovarian
OVCAR-4 ovarian = tested on: OVCAR-4 ovarian
OVCAR-5 ovarian = tested on: OVCAR-5 ovarian
OVCAR-8 ovarian = tested on: OVCAR-8 ovarian
PC-3 prostate = tested on: PC-3 prostate
RPMI-8226 leukemia = tested on: RPMI-8226 leukemia
RXF 393 renal = tested on: RXF 393 renal
SF-268 CNS = tested on: SF-268 CNS
SF-295 CNS = tested on: SF-295 CNS
SF-539 CNS = tested on: SF-539 CNS
SK-MEL-2 melanoma = tested on: SK-MEL-2 melanoma
SK-MEL-28 melanoma = tested on: SK-MEL-28 melanoma
SK-MEL-5 melanoma = tested on: SK-MEL-5 melanoma
SK-OV-3 ovarian = tested on: SK-OV-3 ovarian
SN12C renal = tested on: SN12C renal
SNB-19 CNS = tested on: SNB-19 CNS
SNB-75 CNS = tested on: SNB-75 CNS
SR leukemia = tested on: SR leukemia
SW-620 colon = tested on: SW-620 colon
T-47D breast = tested on: T-47D breast
TK-10 renal = tested on: TK-10 renal
U251 CNS = tested on: U251 CNS
UACC-257 melanoma = tested on: UACC-257 melanoma
UACC-62 melanoma = tested on: UACC-62 melanoma
UO-31 renal = tested on: UO-31 renal

In the case of CS(=O)(=O)c1ccc2c(c1)c1c(n2C(=O)c2ccc(Cl)cc2)CCCC1, the GI50 (786-0 renal) is reported as 3.4 µM, the TGI (786-0 renal) is reported as over 100 µM and the GI50 (A498 renal) is reported as over 100 µM. The TGI (A498 renal) was over 100 µM, the GI50 (A549 NSCLC) was 13.5 µM and the TGI (A549 NSCLC) was over 100 µM. It also gave a GI50 (ACHN renal) of 5.1 µM, a TGI (ACHN renal) of over 100 µM and a GI50 (BT-549 breast) of 1640 nM. For the same molecule, the TGI (BT-549 breast) was over 100 µM, the GI50 (CAKI-1 renal) was 2190 nM and the TGI (CAKI-1 renal) was over 100 µM. The GI50 (CCRF-CEM leukemia) was 2050 nM, the TGI (CCRF-CEM leukemia) was over 100 µM and the GI50 (COLO 205 colon) was 18.9 µM. The TGI (COLO 205 colon) was over 100 µM, the GI50 (DU-145 prostate) was 7.52 µM and the TGI (DU-145 prostate) was over 100 µM. The GI50 (EKVX NSCLC) was 14 µM, the TGI (EKVX NSCLC) was over 100 µM and the GI50 (HCC-2998 colon) was 16.8 µM. It also gave a TGI (HCC-2998 colon) of over 100 µM, a GI50 (HCT-116 colon) of 1270 nM and a TGI (HCT-116 colon) of over 100 µM. It also gave a GI50 (HCT-15 colon) of 1320 nM, a TGI (HCT-15 colon) of over 100 µM and a GI50 (HL-60(TB) leukemia) of 1130 nM. For the same molecule, the GI50 (HOP-62 NSCLC) was 4.48 µM, the TGI (HOP-62 NSCLC) was over 100 µM and the GI50 (HOP-92 NSCLC) was 2630 nM. For the same molecule, the TGI (HOP-92 NSCLC) was over 100 µM, the GI50 (HS 578T breast) was 1410 nM and the TGI (HS 578T breast) was over 100 µM. For the same molecule, the GI50 (HT29 colon) was 4.34 µM, the TGI (HT29 colon) was 67.4 µM and the GI50 (IGROV1 ovarian) was 3.34 µM. The TGI (IGROV1 ovarian) was over 100 µM, the GI50 (K-562 leukemia) was 1310 nM and the TGI (K-562 leukemia) was over 100 µM. The GI50 (KM12 colon) was 1590 nM, the TGI (KM12 colon) was over 100 µM and the GI50 (LOX IMVI melanoma) was 2430 nM. The TGI (LOX IMVI melanoma) was over 100 µM, the GI50 (M14 melanoma) was 1560 nM and the TGI (M14 melanoma) was over 100 µM. It also gave a GI50 (MALME-3M melanoma) of 7.23 µM, a TGI (MALME-3M melanoma) of over 100 µM and a GI50 (MCF7 breast) of 1080 nM. For the same molecule, the TGI (MCF7 breast) was over 100 µM, the GI50 (MDA-MB-231 breast) was 6.83 µM and the TGI (MDA-MB-231 breast) was over 100 µM. It also gave a GI50 (MDA-MB-435) of 614 nM, a TGI (MDA-MB-435) of 1510 nM and a GI50 (MOLT-4 leukemia) of 2860 nM. It also gave a TGI (MOLT-4 leukemia) of over 100 µM, a GI50 (NCI-H226 lung) of 4.62 µM and a TGI (NCI-H226 lung) of over 100 µM. It also gave a GI50 (NCI-H23 lung) of 28.2 µM, a TGI (NCI-H23 lung) of over 100 µM and a GI50 (NCI-H460 lung) of 1500 nM. For the same molecule, the TGI (NCI-H460 lung) was over 100 µM, the GI50 (NCI-H522 lung) was 717 nM and the TGI (NCI-H522 lung) was 2570 nM. The GI50 (NCI/ADR-RES ovarian) was 1400 nM, the TGI (NCI/ADR-RES ovarian) was over 100 µM and the GI50 (OVCAR-3 ovarian) was 5.01 µM. The TGI (OVCAR-3 ovarian) was 46.3 µM, the GI50 (OVCAR-4 ovarian) was 21.1 µM and the TGI (OVCAR-4 ovarian) was over 100 µM. The GI50 (OVCAR-5 ovarian) was 19.8 µM, the TGI (OVCAR-5 ovarian) was over 100 µM and the GI50 (OVCAR-8 ovarian) was 6.49 µM. The TGI (OVCAR-8 ovarian) was over 100 µM, the GI50 (PC-3 prostate) was 4.75 µM and the TGI (PC-3 prostate) was over 100 µM. The GI50 (RPMI-8226 leukemia) was 4.6 µM, the TGI (RPMI-8226 leukemia) was over 100 µM and the GI50 (RXF 393 renal) was 4.23 µM. For the same molecule, the TGI (RXF 393 renal) was 40.7 µM, the GI50 (SF-268 CNS) was 21.5 µM and the TGI (SF-268 CNS) was over 100 µM. It also gave a GI50 (SF-295 CNS) of 1960 nM, a TGI (SF-295 CNS) of over 100 µM and a GI50 (SF-539 CNS) of 6.31 µM. It also gave a TGI (SF-539 CNS) of 35 µM, a GI50 (SK-MEL-2 melanoma) of 1150 nM and a TGI (SK-MEL-2 melanoma) of over 100 µM. For the same molecule, the GI50 (SK-MEL-28 melanoma) was 2970 nM, the TGI (SK-MEL-28 melanoma) was over 100 µM and the GI50 (SK-MEL-5 melanoma) was 2450 nM. For the same molecule, the TGI (SK-MEL-5 melanoma) was over 100 µM, the GI50 (SK-OV-3 ovarian) was 22.1 µM and the TGI (SK-OV-3 ovarian) was over 100 µM. The GI50 (SN12C renal) was 3.43 µM, the TGI (SN12C renal) was over 100 µM and the GI50 (SNB-19 CNS) was 4.16 µM. It also gave a TGI (SNB-19 CNS) of over 100 µM, a GI50 (SNB-75 CNS) of 5.05 µM and a TGI (SNB-75 CNS) of 64.9 µM. It also gave a GI50 (SR leukemia) of 1100 nM, a TGI (SR leukemia) of over 100 µM and a GI50 (SW-620 colon) of 1610 nM. For the same molecule, the TGI (SW-620 colon) was over 100 µM, the GI50 (T-47D breast) was 2540 nM and the TGI (T-47D breast) was over 100 µM. For the same molecule, the GI50 (TK-10 renal) was over 100 µM, the TGI (TK-10 renal) was over 100 µM and the GI50 (U251 CNS) was 3.41 µM. For the same molecule, the TGI (U251 CNS) was over 100 µM, the GI50 (UACC-257 melanoma) was over 100 µM and the TGI (UACC-257 melanoma) was over 100 µM. For the same molecule, the GI50 (UACC-62 melanoma) was 1270 nM, the TGI (UACC-62 melanoma) was over 100 µM and the GI50 (UO-31 renal) was 3.22 µM. The TGI (UO-31 renal) was over 100 µM.

Source: PubChem BioAssay (NCI)
